In patent publication US20200079757A1, “COMPOUNDS FOR THE TREATMENT OF RESPIRATORY DISEASES” (THE UNIVERSITY OF MELBOURNE, priority 2017, published 2020):

What was measured:
[1] = system: TGFβ-activated A549; assay: TGFβ-activated A549 gene expression (modulation of mRNA level, RT-qPCR); assay type: cell-based; details: for CTGF expression / PAI-1 expression / TGF-β-induced suppression of E-cadherin: A549, 0.1-10 μM prior to TGF-β (100 pM) 24 hr; for IC50: Homo sapiens, read-out: -Log IC50 ± SEM (modulation of mRNA level), N-Cadherin induction (converted)
[2] = system: TNF-stimulated BEAS-2B cells; assay: TNF-α-induced IL-8 and CSF-2 (GM-CSF) mRNA and supernatant protein in BEAS-2B cells (RT-qPCR, ELISA); assay type: cell-based; details: 1-10 μM 30 min prior to TNF-α 10 ng/ml 24 h, maximal at lowest concentration
Description: The primary assay for the activity of the novel CK1δ/ε inhibitors is the modulation of gene expression in the airway epithelial cell line, the BEAS-2B cells. The assay is conducted under several conditions. Generally, TGF-β or TNF-α is used to elicit fibrogenic or inflammatory genes, respectively. The agents are added at a concentration of 10 μM, or at the indicated concentrations for a period of 30 min prior to the addition of TGF-β/TNF-α which are incubated for a further 20 hours before the addition, in some experiments of the glucocorticoid, dexamethasone (Dex, 30 nM) for the final 4 hours of the experiment, prior to harvest of cellular RNA to measure by RT-qPCR the levels of mRNA of marker genes for inflammation and fibrogenesis. The inhaled corticosteroid (ICS), budesonide is also used in some experiments. Furthermore, the supernatants are harvested at the end of the incubation periods in selected experiments to measure the levels of CSF-2 or IL-8 by ELISA as described in (Tran et al. (2005) British Journal of Pharmacology, 145, 123-131). […] The threshold cycle (CT) values determined for target genes were normalized against those obtained for 18S ribosomal RNA (18S rRNA), which was included as internal control. […] RNA was extracted and measured by RT-qPCR. Pro-inflammatory cytokines in the supernatants were measured by ELISA. […]

[3] = system: Bleomycin Model of Pulmonary Fibrosis; assay: Bleomycin model of pulmonary fibrosis: BAL protein, BAL cells, lung gene expression; assay type: in vivo, mouse; details: female C57BI/6 mice; for bleomycin-induced BAL cell number / bleomycin-induced BAL protein: day −1 to 3
Description: All animal experiments were carried out in accordance with ethical guidelines from the University of Melbourne Animal Ethics Committee (AEEC #1513736.1). Six- to 8-week old 20-25 g C57BI/6 mice (ARC, Perth, Australia) received treatment with 35 μL of saline or bleomycin (105 mU per mouse) on day 0 through intranasal administration, as previously described (Langenbach et al., (2007). Can J Physiol Pharmacol, 85, 727-738). Acute and chronic bleomycin mouse models were used to assess the effect of SS9-010 on pulmonary fibrosis in vivo. SS9-010 was administered systemically through intraperitoneal injection or locally to the lungs through inhalation of an aerosol generated using an oxygen concentrator connected to a hudson nebuliser operating at 5 L/min for 15 minutes. […] Mice were allowed food and water ad libitum for the duration of all studies. At the end of each study, bronchoalveolar lavage (BAL) was performed from which leukocyte cell types were enumerated and acelluar protein content was determined as previously described (Langenbach, et al., 2007), lungs were dissected and snap frozen. Gene expression were determined from pulverised frozen lung tissue. Total protein content in acellular BAL fluid was assessed using the BioRad protein assay method. BAL cells in BAL fluid were stained with Erythrosin B (EB) and counted manually with the aid of a hemocytometer. Total BAL cell number was calculated by accounting for the return volume of BAL fluid. The effects of inhaled SS9-010 on bleomycin-induced BAL protein leakage, BAL cell recruitment, lung weight, as well as lung fibrogenic gene expression in mouse lungs are shown in FIG. 9. Female C57BI/6 mice received a transnasal dose of bleomycin or saline on day 0. SS9-010 was administered day −1 to day 3 by daily inhalation of aerosol generated by nebulizing from a concentration of 1 mg/mL for a period of 15 min once daily. Bronchoalveolar lavage (BAL) protein and BAL cell number were assessed. Lung fibrogenic gene expression was also assessed on day 3. Data are presented as mean±SEM (n=6). […] The effects of intraperitoneal injection of SS9-010 on bleomycin-induced BAL protein leakage, BAL cell recruitment, and lung fibrogenic gene expression in mouse lungs are shown in FIG. 10. Female C57BI/6 mice were […] administered bleomycin or saline on day 0. SS9-010 (3 or 10 mg/kg/day, ip) was administered from day −1 to 3. […] Lung fibrogenic gene expression was also assessed on day 3. Data are presented as mean±SEM (n=4 sal, n=5 other groups). Systemic SS9-010 (3 or 10 mg/kg/day, ip) had no effect on BAL protein or BAL cell number. Induction of IL-6 was reduced by SS9-010 treatment, whereas arginase-1 was not.

[4] = system: ovalbumin (OVA)-sensitized BALB/c mice; assay: Airway hyper-responsiveness to methacholine in acute ovalbumin-induced asthma model; assay type: in vivo, mouse; details: inhaled, estimated deposited dose 1 μg, day 21 to 28
[5] = A549, agent 0.1-10 μM before TGF-β (100 pM) 24 hr
[6] = inhaled aerosol 1 mg/mL 15 min once daily

SMILES | CTGF expression [1] | PAI-1 expression [1] | TGF-β-induced suppression of E-cadherin [1] | -Log IC50 ± SEM (modulation of mRNA level), Vimentin induction [1, 5] | IC50 [1, 5] | TNF-α-induced IL-8 expression and immunoreactive IL-8 in supernatant [2] | induction of IL-6 (lung gene expression) ([3]; 3 or 10 mg/kg/day ip, day 3) | bleomycin-induced BAL cell number ([3]; 3 or 10 mg/kg/day ip) | bleomycin-induced BAL protein ([3]; 3 or 10 mg/kg/day ip) | bleomycin-induced BAL cell number [3, 6] | bleomycin-induced BAL protein [3, 6] | lung fibrogenic gene expression ([3]; inhaled aerosol 1 mg/mL 15 min once daily, day −1 to 3, assessed day 3) | OVA-induced increase in central airway resistance (Rn) to methacholine [4] | OVA-induced increase in elastance to methacholine [4] | compliance changes, OVA/SS9-010 compared to OVA alone [4]
Cl.Nc1nccc(-c2c(-c3ccc(F)cc3)ncn2C2CCCCC2)n1 [PF670462, 4-(1-Cyclohexyl-4-(4-fluorophenyl)-1H-imidazol-5-yl)pyrimidin-2-amine hydrochloride, reference compound] | concentration-dependently inhibited | concentration-dependently inhibited | restored | Inactive | 4.47 µM | active inhibitors | – | – | – | – | – | – | – | – | –
CNc1nccc(-c2c(-c3ccc(F)cc3)ncn2C2CCCCC2)n1 [SS9-010, 4-(1-Cyclohexyl-4-(4-fluorophenyl)-1H-imidazol-5-yl)-N-methylpyrimidin-2-amine] | concentration-dependently inhibited | concentration-dependently inhibited | restored | – | 2 µM | active inhibitors | reduced | no effect | no effect | modest suppression | showed an effect | showed an effect | attenuated | attenuated | No significant difference
